Reference: patent EP1884568A1, “METHOD FOR IDENTIFICATION OF COMPOUND HAVING ANTIDEPRESSANT EFFECT” (Daiichi Sankyo Company, Limited, priority 2005, dated 2006)

Target: T1, ph01207 (Homo sapiens, UniProt O60241, DEL308-362)
T1 construct: containing an ORF that encodes 1518 amino acid residues; expressed in transfected cells; host or cells: CHO-K1 (clone ph01207 #3F8-17)
Experiment: Inhibition of the CCK-8S response (intracellular Ca2+), ph01207 #3F8-17 cell line
Assay type: cell-based
Conditions: for response of ph01207 #3F8-17 cell line to the ligand (increase in intracellular Ca^2+ by CCK-8S): compound 10 µg/mL added 35 sec before 10 nM CCK-8S, buffer as control
Experimental: Identification of a compound that inhibits a response of ph01207 gene product to a ligand was carried out with a system for measuring a change in intracellular calcium concentration using ph01207 expressing cell line.
ph01207 expressing cell line was constructed as follows. […] Detection of the expression of introduced genes in cells was carried out by FCM analysis using anti-ph01207 antibody
As a result, a plurality of cell lines that stably expressed ph01207 was obtained. Identification of a compound was carried out using ph01207 #3F8-17 cell line that was one of clones among them.
As a ligand, CCK-8S (Peptide Institute) was used. 0.52 mg of CCK-8S (SEQ ID NO: 14) was dissolved in 4.5 mL of 1% NaHCO3 (Wako) to prepare a solution of 0.1 mM concentration. As a test compound, SoftFocus GPCR Target-Directed Library that is a compound library (BioFocus) was used. A 2 mg/mL DMSO solution of each compound was diluted 25-fold with PBS to adjust the concentration to 80 µg/mL for use.
Specifically, identification of a compound was carried out as follows. ph01207 #3F8-17 cell line was seeded in 96-well plates with a black wall surface and transparent bottom) at 3 × 10^4 cells /100 µL medium/well, and cultured at 37°C in the presence of 5% CO2. DMEM/F12 (supplied by Gibco) containing 10% fetal calf serum (supplied by Moregate) was used as the medium. On the next day, 20 µL of 6 × loading buffer was added to each well to allow for a reaction at 37°C for 1 h so as to allow cells to incorporate fluorescent dye contained in the loading buffer. The 6 × loading buffer was prepared by dissolving component A of the FLIPR Calcium 3 Assay Kit (Molecular Devices Corp.) with component B followed by adding probenecid (Sigma) to have a final concentration of 15 mM. After the reaction, CCK-8S (Peptide Institute) and a compound were added to measure a change in the fluorescence intensity time-dependently for each well for 80 sec. […] A time-dependent measurement of the change in the fluorescence intensity was carried out using FLEXstation (Molecular Devices Corp.).

T1 sequence (O60241 with tags, fused parts or gaps isoform O60241-3 DEL296-350): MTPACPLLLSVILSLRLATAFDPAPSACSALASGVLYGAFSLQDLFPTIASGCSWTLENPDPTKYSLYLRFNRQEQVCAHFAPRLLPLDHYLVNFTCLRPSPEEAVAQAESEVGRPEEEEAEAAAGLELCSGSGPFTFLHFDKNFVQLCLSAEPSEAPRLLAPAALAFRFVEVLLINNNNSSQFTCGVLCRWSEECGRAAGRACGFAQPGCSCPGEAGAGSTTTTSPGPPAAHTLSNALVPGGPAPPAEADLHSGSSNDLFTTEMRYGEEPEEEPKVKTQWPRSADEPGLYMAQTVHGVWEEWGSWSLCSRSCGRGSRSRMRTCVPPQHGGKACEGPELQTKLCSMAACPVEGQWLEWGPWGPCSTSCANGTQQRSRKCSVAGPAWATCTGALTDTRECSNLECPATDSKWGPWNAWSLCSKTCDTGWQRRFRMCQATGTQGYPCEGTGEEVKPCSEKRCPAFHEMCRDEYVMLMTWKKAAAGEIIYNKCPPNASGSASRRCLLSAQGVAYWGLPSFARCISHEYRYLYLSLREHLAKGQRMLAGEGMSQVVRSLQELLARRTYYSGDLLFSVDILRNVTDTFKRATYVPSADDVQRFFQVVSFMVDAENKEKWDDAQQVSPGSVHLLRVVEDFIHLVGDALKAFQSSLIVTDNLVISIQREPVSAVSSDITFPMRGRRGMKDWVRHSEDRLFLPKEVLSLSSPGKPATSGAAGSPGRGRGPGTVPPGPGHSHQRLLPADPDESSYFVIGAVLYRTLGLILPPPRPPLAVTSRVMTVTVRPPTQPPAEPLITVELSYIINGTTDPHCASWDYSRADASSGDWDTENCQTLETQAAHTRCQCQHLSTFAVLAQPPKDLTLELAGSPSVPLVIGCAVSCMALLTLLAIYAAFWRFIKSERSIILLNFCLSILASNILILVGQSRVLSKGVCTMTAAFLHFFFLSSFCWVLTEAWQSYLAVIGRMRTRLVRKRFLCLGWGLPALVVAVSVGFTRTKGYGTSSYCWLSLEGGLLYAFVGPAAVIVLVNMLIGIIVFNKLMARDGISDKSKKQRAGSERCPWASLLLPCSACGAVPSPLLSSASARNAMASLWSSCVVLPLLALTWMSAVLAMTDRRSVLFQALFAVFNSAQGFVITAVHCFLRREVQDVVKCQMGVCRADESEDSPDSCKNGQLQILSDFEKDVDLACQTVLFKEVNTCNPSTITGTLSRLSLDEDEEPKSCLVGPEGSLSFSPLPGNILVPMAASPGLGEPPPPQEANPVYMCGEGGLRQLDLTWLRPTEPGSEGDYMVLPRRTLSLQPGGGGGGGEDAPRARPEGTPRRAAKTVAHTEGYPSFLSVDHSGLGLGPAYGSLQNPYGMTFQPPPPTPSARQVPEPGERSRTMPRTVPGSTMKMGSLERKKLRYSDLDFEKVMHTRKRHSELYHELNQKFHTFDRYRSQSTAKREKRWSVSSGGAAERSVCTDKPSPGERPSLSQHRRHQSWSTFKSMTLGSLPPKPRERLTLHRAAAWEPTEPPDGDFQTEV

Row | Compound | change in fluorescence intensity on addition of the compound alone (ph01207 #3F8-17 cell line, compound 10 µg/mL added at 15 sec, before CCK-8S) | response of ph01207 #3F8-17 cell line to the ligand (increase in intracellular Ca^2+ by CCK-8S)
1 | O=C(Nc1cccc(C(F)(F)F)c1)N1CCC2(C1)NCCc1c2[nH]c2ccccc12 (stereo not drawn) [compound A] | No change | 
2 | O=C(Nc1ccccc1)N1CCC2(CC1)NCCc1c2[nH]c2ccccc12 [compound B] |  | inhibited
3 | O=C(c1cnc2ccccc2c1)N1CCC2(CC1)OCc1ccccc1O2 [compound C] |  | inhibited
